Source: patent publication US10023536B2, “Suprametallogels and uses thereof” (Massachusetts Institute of Technology, priority 2014, dated 2018)

Tested on: HeLa cells
Assay: Cytotoxicity of the gel components against HeLa cells (MILLIQ water as control)
Assay type: cell-based
Settings: components of the gel tested separately
Procedure: FIG. 27: cytotoxicities of (1) a gel formed from C-2 and Fe^2+ (“gel”), (2) PEG, and (3) Fe^2+ (“Fe”) against HeLa cells. MILLIQ water (“milliQ”) used as a control.
Because C-2 forms gels with Fe^2+ salts, which are biocompatible, these gels may have applications as therapeutic devices. First, the cytotoxicity of these gels was tested on HeLa cells to determine the effect of the components of the gels on cell viability. Due to the difficulty in assessing the toxicity of gel materials, the components of the gels were tested separately.

Substance: iron
- cytotoxicity compared to MILLIQ water: little cytotoxicity
